Results from patent US7812034B2, “Method of using protease inhibitors for the treatment of liposarcomas” (City of Hope, priority 2003, dated 2010).
Where two headings read alike, the source gives them in different places.

Columns and labels:
[1] = tested on: intermediate to high-grade liposarcoma; conditions: patients with liposarcoma; cited from earlier work
SW872 liposarcoma cells = assay: Clonogenic assay, SW872 liposarcoma cells; format: cell-based, human; conditions: for concentration that inhibits SW872 liposarcoma clonogenicity (colony growth): 4 hours treatment, 2000 cells plated, colonies scored at 7-10 days, FIG. 1
Procedure: The experimental conditions were intended to bracket these clinically relevant concentrations.
Two thousand treated cells were plated into 60 mm tissue culture plates in triplicate, and colonies (≧40 cells/colony) were scored at 7-10 days with the Eagle Eye II gel documentation system (Stratagene, La Jolla, Calif.). FIG. 1 summarizes the mean and standard deviation of the triplicate colony counts for each experimental condition. […] Ritonavir inhibits colony growth if administered in a concentration of at least 10 μM.
(§1) One thousand treated cells were plated in triplicate in this instance, and colonies were similarly scored.

[2] = humans, cited from earlier work; for Cmax: recommended dose and regimen, read-out: maximum plasma concentration (Cmax)
[3] = tested on: differentiated adipocytes; conditions: incubation for 48 hours; cited from earlier work
pre-adipocytes = conditions: incubation for 48 hours; cited from earlier work
[4] = tested on: advanced soft tissue sarcomas; conditions: patients; cited from earlier work
[5] = tested on: human 293 embryonic kidney cells; assay: Clonogenic assay, 293 embryonic kidney cells; format: cell-based; conditions: increasing concentrations, 1000 cells plated, FIG. 2
Procedure: as §1

[6] = tested on: human HT1080 fibrosarcoma cells; assay: Clonogenic assay, HT1080 fibrosarcoma cells; format: cell-based; conditions: increasing concentrations, 1000 cells plated, FIG. 2
Procedure: as §1

S2 liposarcoma cell line = assay: Clonogenic assay, S2 high-grade liposarcoma cells; format: cell-based, human; conditions: 2.5, 10, 20 μM, 4 hours, FIG. 3
Procedure: A second high-grade liposarcoma cell line, S2 (a kind gift from Dr. Wei Wen, City of Hope Medical Center), was tested for protease inhibitor (PI) therapy for liposarcoma. The purpose of the experiment was to determine whether nelfinavir-mediated inhibition of liposarcoma clonogenicity could be reproduced in S2 cells. As with the SW872 experiment, S2 cells […], indinavir, ritonavir, and saquinavir. […] Colonies (≧40 cells/colony) were scored at 7-10 days with the Eagle Eye II gel documentation system (Stratagene, La Jolla, Calif.). FIG. 3 summarizes the mean and standard deviation of the triplicate colony counts for each experimental condition.

SREBP-1 [7] = assay: Western blot of SREBP-1 protein in S2 cells; format: cell-based, human; conditions: 10 μM, FIG. 4
Excerpt: In order to influence transcription, the NH2-terminal domain of SREBP-1 must be proteolytically released from the membrane to enter the nucleus (68 kDa).

SREBP-1 [8] = assay: SREBP-1 protein levels in SW872 cells; format: cell-based, human
Procedure: In order to influence transcription, the NH2-terminal domain of SREBP-1 must be proteolytically released from the membrane to enter the nucleus (68 kDa). […] Alterations in both SREBP-1 and PPARγ levels have been proposed as the mechanisms underlying of HIV protease-induced lipodystrophy (15-18, 21). To determine whether a similar mechanism is responsible for the observation of nelfinavir-mediated inhibition of liposarcoma clonogenicity, whole cell extracts are prepared from control and nelfinavir-treated SW872 cells for SDS-PAGE electrophoresis. After transfer to polyvinylidene fluoride membranes, the extracts are probed with rabbit polyclonal antibodies to SREBP-1 and PPARγ (Santa Cruz Biotechnology, Santa Cruz, Calif.). Protein detection is performed by ECL using commercially available reagents as per the manufacturer's instructions (Applied Biosystems, Foster City, Calif.). To control for protein-loading, the membranes are stripped and reprobed with antibody to β-actin (Santa Cruz Biotechnology).

[9] = cited from earlier work
[10] = cited from earlier work; remark: listed apart in the source

For `Cc1c(C)c2c(c(C)c1O)CCC(C)(COc1ccc(CC3SC(=O)NC3=O)cc1)O2` (centres unmarked) [troglitazone], the toxicity of therapy [1] is given as “negligible”.

In the case of `CC(C)c1nc(CN(C)C(=O)N[C@H](C(=O)N[C@@H](Cc2ccccc2)C[C@H](O)[C@H](Cc2ccccc2)NC(=O)OCc2cncs2)C(C)C)cs1` [ritonavir], the “concentration that inhibits SW872 liposarcoma clonogenicity (colony growth)” value (SW872 liposarcoma cells) is listed as “at least 10 μM”, the Cmax [2] is listed as 15.5 µM and the “apoptosis in differentiated adipocytes” value [3] is listed as “induced apoptosis”. For the same compound, the apoptosis in pre-adipocytes (pre-adipocytes) was “not in pre-adipocytes”.

For `CC(C)(C)NC(=O)[C@@H]1CN(Cc2cccnc2)CCN1C[C@@H](O)C[C@@H](Cc1ccccc1)C(=O)N[C@H]1c2ccccc2C[C@H]1O` [indinavir], the Cmax [2] is listed as 12.5 µM.

For `COc1cccc2c1C(=O)c1c(O)c3c(c(O)c1C2=O)C[C@@](O)(C(=O)CO)C[C@@H]3O[C@H]1C[C@H](N)[C@H](O)[C@H](C)O1` [doxorubicin], the response rate [4] is given as “about 25%”.

For `Cc1c(O)cccc1C(=O)N[C@@H](CSc1ccccc1)[C@H](O)CN1C[C@H]2CCCC[C@H]2C[C@H]1C(=O)NC(C)(C)C` [nelfinavir], the “concentration that inhibits SW872 liposarcoma clonogenicity (colony growth)” value (SW872 liposarcoma cells) was at least 2.5 µM, the “colonies in the SW872 cell line” value (SW872 liposarcoma cells; nelfinavir 20 μM, 1000 cells plated, FIG. 2) was “marked reduction in colonies” and the “embryonic kidney (293) clonogenicity” value [5] was “minimally affecting”. For the same compound, the “fibrosarcoma (HT1080) clonogenicity” value [6] was “minimally affecting”, the “clonogenicity in the S2 liposarcoma cell line” value (S2 liposarcoma cell line) was “inhibits clonogenicity” and the “SREBP-1 protein (nuclear active and precursor forms)” value (SREBP-1 [7]) was “upregulated in a time-dependent fashion”. The “expression of SREBP-1” value (SREBP-1 [8]) was “upregulates expression of SREBP-1”, the oral bioavailability ([2]; administered with food) was 70-80% and the Cmax [2] was 6.97 µM. The oral bioavailability ([9]; fed rats) was 43%, the “plasma Cmax” value ([9]; rat, daily gavage 50 mg/kg in 5% dextrose or propylene glycol-water) was 1.34 to 1.65 µg/mL and the Cmax ([9]; rat, daily gavage 50 mg/kg in 5% dextrose or propylene glycol-water, read-out: plasma Cmax) was 2330 to 2870 nM. For the same compound, the “time plasma levels were maintained after dosing” value ([9]; rat, oral 50 mg/kg) was “up to 7 hours”, the water solubility [10] was “water-soluble” and the “apoptosis in differentiated adipocytes” value [3] was “induced apoptosis”. The apoptosis in pre-adipocytes (pre-adipocytes) was “not in pre-adipocytes”.

For `CC(C)(C)NC(=O)[C@@H]1C[C@@H]2CCCC[C@@H]2CN1C[C@@H](O)[C@H](Cc1ccccc1)NC(=O)[C@H](CC(N)=O)NC(=O)c1ccc2ccccc2n1` [saquinavir], the Cmax [2] is given as 3.67 µM, the “apoptosis in differentiated adipocytes” value [3] is given as “induced apoptosis” and the apoptosis in pre-adipocytes (pre-adipocytes) is given as “not in pre-adipocytes”.
